# Results from PMC9920413, “New Bicyclic Pyridine-Based Hybrids Linked to the 1,2,3-Triazole Unit: Synthesis via Click Reaction and Evaluation of Neurotropic Activity and Molecular Docking” (Molecules, 2023).
# How the values were obtained:
# in vivo = details: outbred, mouse, in vivo; mice, dead animals after 24 h
# Experimental: (§1) Adverse neurotoxic (muscle relaxant) effects of compounds were studied at doses of 50 to 500 mg/kg when administered intraperitoneally, as well as reference drugs in effect at anticonvulsant doses. Myorelaxation was investigated with the test of a “rotating rod” in mice. To this end, mice were planted on a metal rod with a corrugated rubber coating, which rotated at a speed of 5 revolutions per minute. The number of animals that cnot stay on it for 2 min was determined. To determine the ED50, neurotoxic TD50, and LD50, the statistical method of penetration by Litchfield and Wilcoxon was used.
# mouse = test: Elevated plus maze (EPM) test; format: in vivo; details: 50 mg/kg i.p., 5 min; for Time Spent in the Open Arms: control 2.6 ± 1.6; for Number of Entries into the Closed Arms: control 9.4 ± 1.6; for Time Spent in the Center: control 28.2 ± 3.12; for Time Spent in Closed Arms: control 269.2 ± 10.4
# Description: Elevated plus maze—EPM test. Anti-anxiety and sedative effects were studied on mouse a model of the “elevated plus maze”. The labyrinth is a cruciform machine raised above the floor, with a pair of open and closed sleeves opposed to each other. Normal animals prefer to spend most of their time in the closed (dark) sleeves of the labyrinth. The anxiolytic effect of the compounds was estimated by the increase in the number of entries into open (light) sleeves and the time spent in them without increasing the total motor activity. This records the time spent in the closed sleeve and the number of attempts to enter the installation center. In the above model, the test compounds and the reference drug were injected intraperitoneally before the experiments. The control animals were administered as an emulsifier. Results were processed statistically (p < 0.05).
# rats [1] = test: Open field test; format: in vivo; details: 50 mg/kg i.p.; for Cells Examination, amount (absolute data during 5 min): control 2.4 ± 0.67; for Vertical Displacement, amount (absolute data during 5 min): control 7.0 ± 2.14; for Horizontal Displacement, amount (absolute data during 5 min): control 21.6 ± 2.25
# Experimental: Open field test. The research-motor behavior of rats was studied on a modified “open field” model. For this purpose, an installation was used, the bottom of which is divided into squares with holes (cells). Experiments were performed in the daytime with natural light. Within 5 min of the experiment, the indicators of sedative and activating behavior were determined, namely the number of horizontal movements, standing on the hind legs (vertical movements), and sniffing of the cells. The number of animals on this model was eight for each compound, control, and reference drug.
# mice = test: Forced swimming test; details: 50 mg/kg, 6 min; for Total Time of Immobilization: control 42.0 ± 7.24; for Total Time of Active Swimming: control 318.0 ± 8.36;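 for all read-outs here: mice made to swim in a water-filled glass vessel under natural light, with durations of active swimming and immobility recorded across the 6 min session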
# Experimental: Forced swimming test. To assess “despair and depression”, the “compelling swimming” model was used. Experimental animals were forced to swim in a glass container (height 22 cm, diameter 14 cm), filled 1/3 with water. […] The latent period of immobilization, the total duration of active swimming and immobilization are fixed at 6 min (the experiments were conducted under natural light).
# [2] = system: thiosemicarbazide (TSC)-induced convulsions; test: Thiosemicarbazide (TSC) seizures; format: in vivo, mice; details: mice; for response vs control in vivo at 100 mg/kg: Mus musculus, ip, compound 100 mg/kg i.p., relative to control = 1.0, read-out: Latency of Convulsions, Induced by TSC, I (index of latent period of TSC seizures); for Latency of Convulsions, Induced by TSC, M ± M: compound 100 mg/kg i.p. 45 min before TSC 18 mg/kg s.c.
# Experimental: (§2) The study of the anticonvulsant activity of hybrids 7a–u was assessed by evaluating the antagonism to pentylenetetrazole (PTZ), thiosemicarbazide convulsive seizures, and maximal electroshock-induced seizures (MES). The PTZ-induced test is considered an experimental model for the clonic component of epilepsy seizures and the prognostic anxiolytic activity of the compounds. PTZ is a common convulsive agent used in animal models to investigate the mechanisms of seizures. The model of thiosemicarbazide (TSC) seizures (affecting the exchange of GABA) causes clonic seizures similar to pentylenetetrazole ones. The MES test is used as an animal model for the generalization of tonic seizures in epilepsy. The neurotoxicity and side effects of the compounds (movement coordination disorder, myorelaxation, and ataxia) were also studied on mice with the “rotating rod”[29] test.
# Thiosemicarbazide, an antimetabolite of GABA inhibitor (glutamic acid decarboxylase) in the brain, is administered subcutaneously to mice at a dose of 18 mg/kg as a 0.5% solution, which causes clonic convulsions in animals. Anti-thiosemicarbazide activity was evaluated based on the latency time of the onset of seizures. Compounds were administered intraperitoneally at doses of 100 mg/kg in suspension with carboxymethylcellulose and Tween-80 45 min before administration of thiosemicarbazide.
# [3] = Rotating rod test (neurotoxicity, myorelaxation); format: in vivo; details: outbred, mouse, in vivo, ip, mice, myorelaxation in 50% of animals
# Experimental: as §2, §1
# [4] = system: pentylenetetrazole (PTZ)-induced convulsions; test: Antagonism to pentylenetetrazole (PTZ) convulsions; format: in vivo; details: for ED50: Mus musculus, mice, i.p. 45 min before PTZ 90 mg/kg s.c., confidence limits in brackets, p = 0.05, read-out: ED50 (by PTZ antagonism); for TI: therapeutic index TI = LD50/ED50
# Experimental: as §2
# The anticonvulsant effect of the newly synthesized compounds was investigated by tests comprising pentylenetetrazole, thiosemicarbazide convulsions, and maximal electroshock (MES). Outbred mice (weight 18–22 g) were used for the study. […] Each animal is placed into an individual plastic cage for observation lasting 1 h. Seizures and clonic convulsions were recorded. […] The control animals were administered as an emulsifier. Every dose of each test compound was studied in six animals.
# as §1
# rats [5] = test: Electroshock retrograde amnesia, conditioned response of passive avoidance (CRPA); format: in vivo; details: 1000 mg/kg, study for 5 min
# Experimental: Test for learning and memory. The antiamnesic properties of the compounds were studied using an electroshock amnesia model modified by J. Bures, O. Buresova. In rats, a conditioned passive avoidance reaction (CRPA) to a dark-light setting was developed, while the training of the animals with CRPA was recorded. The residence times in the light and dark compartments were recorded for 5 min (300 s). Then, in the dark compartment, the animal received a single current shock (0.4 mA) through the electrode floor (training). To obtain amnesia, a maximum electroconvulsive seizure is induced in animals (conducting a maximum electric current of 50 Hz for 0.2 s through corneal electrodes). Conducting an electric shock immediately after training causes the erasure of the memory trace. The test for reproduction is carried out 24 h after training—after the development of CRPA. During this period, the control animals forget the training and prefer to be in the dark part of the chamber. An increase in the time spent by rats in the light compartment compared to the control on the second day indicates the presence of antiamnestic properties of the compounds.
Compound,LD50 at 24 h (in vivo) [mg/kg],Time Spent in the Open Arms (mouse) [s],Number of Entries into the Closed Arms (mouse),Time Spent in the Center (mouse) [s],Time Spent in Closed Arms (mouse) [s],"Cells Examination, amount (absolute data during 5 min) (rats [1])","Vertical Displacement, amount (absolute data during 5 min) (rats [1])","Horizontal Displacement, amount (absolute data during 5 min) (rats [1])",Total Time of Immobilization (mice) [s],Total Time of Active Swimming (mice) [s],response vs control in vivo at 100 mg/kg [2] [%],"Latency of Convulsions, Induced by TSC, M ± M [2] [min]",TD50 at 2 min [3] [mg/kg],ED50 [4] [mg/kg],TI [4],"The Time Spent in the Light Chamber When Playing CRPA + MESH after 24 h, Second Day (rats [5]) [s]","The Time Spent in the Light Chamber during the Training of the CRPA, First Day (rats [5]) [s]"
"CCCc1nc(N2CCN(C(=O)Cn3cc(COc4nc(C(C)C)c5c(c4C#N)CCC5)nn3)CC2)c(C#N)c2c1COC(C)(C)C2 [7c, 6-{4-[(4-{[(4-Cyano-1-isopropyl-6,7-dihydro-5H-cyclopenta[c]pyridin-3-yl)oxy]methyl}-1H-1,2,3-triazol-1-yl)acetyl]piperazin-1-yl}-3,3-dimethyl-8-propyl-3,4-dihydro-1H-pyrano [3,4-c]pyridine-5-carbonitrile]",650,10.6 ± 2.1,2.6 ± 1.4,45.4 ± 4.7,244.0 ± 10.67,4.2 ± 0.56,6.2 ± 1.03,57.2 ± 12.85,10.0 ± 4.1,350.0 ± 11.62,250,25.0 ± 4.1,> 500,35,18.6,–,–
CCc1nc(N2CCN(C(=O)Cn3cc(COc4nc(C(C)C)c5c(c4C#N)CCCC5)nn3)CC2)c(C#N)c2c1COC(C)(C)C2 [7h],720,30.0 ± 2.4,4.8 ± 1.34,28.4 ± 2.38,246.6 ± 21.9,6.8 ± 3.12,6.0 ± 0.89,63.8 ± 14.02,2.0 ± 0.8,358.0 ± 8.2,150,15.2 ± 1.2,> 500,27,26.7,–,–
CCCc1nc(N2CCN(C(=O)Cn3cc(COc4nc(C)c5c(c4C#N)CC(C)(C)OC5)nn3)CC2)c(C#N)c2c1COC(C)(C)C2 [7o],800,10.0 ± 2.78,5.8 ± 1.03,61.0 ± 3.68,229.0 ± 11.2,8.6 ± 3.25,9.6 ± 3.89,73.0 ± 13.37,2.0 ± 0.4,358.0 ± 12.0,304,30.4 ± 1.1,> 500,28,28.6,–,–
"CCc1nc(OCc2cn(CC(=O)N3CCN(c4nc(CC)c5c(c4C#N)CC(C)(C)OC5)CC3)nn2)c(C#N)c2c1COC(C)(C)C2 [7q, 6-{4-[(4-{[(5-Cyano-8-ethyl-3,3-dimethyl-3,4-dihydro-1H-pyrano [3,4-c]pyridin-6-yl)oxy]methyl}-1H-1,2,3-triazol-1-yl)acetyl]piperazin-1-yl}-8-ethyl-3,3-dimethyl-3,4-dihydro-1H-pyrano [3,4-c]pyridine-5-carbonitrile]",790,24.0 ± 2.5,5.0 ± 2.19,50.8 ± 3.4,225.2 ± 13.87,7.4 ± 2.42,8.8 ± 1.61,60.2 ± 4.61,24.0 ± 2.9,336.0 ± 25.3,220,22.0 ± 2.2,> 500,42,18.8,–,–
"CCCc1nc(N2CCN(C(=O)Cn3cc(COc4nc(CC)c5c(c4C#N)CC(C)(C)OC5)nn3)CC2)c(C#N)c2c1COC(C)(C)C2 [7r, 6-[(1-{2-[4-(5-Cyano-3,3-dimethyl-8-propyl-3,4-dihydro-1H-pyrano [3,4-c]pyridin-6-yl)piperazin-1-yl]-2-oxoethyl}-1H-1,2,3-triazol-4-yl)methoxy]-8-ethyl-3,3-dimethyl-3,4-dihydro-1H-pyrano [3,4-c]pyridine-5-carbonitrile]",710,7.0 ± 2.59,3.4 ± 1.59,83.0 ± 5.1,210.4 ± 10.3,4.4 ± 1.89,2.2 ± 1.36,30.0 ± 2.48,36.0 ± 5.55,324.0 ± 18.55,394,39.4 ± 1.11,> 500,26,27.3,–,–
"CCCc1nc(OCc2cn(CC(=O)N3CCN(c4nc(CCC)c5c(c4C#N)CC(C)(C)OC5)CC3)nn2)c(C#N)c2c1COC(C)(C)C2 [7u, 6-{4-[(4-{[(5-Cyano-3,3-dimethyl-8-propyl-3,4-dihydro-1H-pyrano [3,4-c]pyridin-6-yl)oxy]methyl}-1H-1,2,3-triazol-1-yl)acetyl]piperazin-1-yl}-3,3-dimethyl-8-propyl-3,4-dihydro-1H-pyrano [3,4-c]pyridine-5-carbonitrile]",680,20.0 ± 3.12,4.4 ± 2.1,36.2 ± 2.38,243.8 ± 20.7,2.2 ± 1.03,3.6 ± 0.67,41.8 ± 6.12,84.0 ± 12.5,276.0 ± 26.0,438,43.8 ± 1.03,> 500,32,21.3,–,–
"NC(=O)CN1CCCC1=O [Piracetam, piracetam, reference compound]",–,–,–,–,–,–,–,–,–,–,–,–,–,–,–,243.7 ± 8.4,158.0 ± 5.9
